Test results reported in ChEMBL document CHEMBL3392951, “Discovery of indole-derived pyridopyrazine-1,6-dione γ-secretase modulators that target presenilin” (Bioorg Med Chem Lett, 2015).

Test: Octanol-water partition coefficient, log D of the compound at pH 7.4 by shake flask method
Assay type: physicochemical

| logD | Compound |
| --- | --- |
| 2.7 | Cc1cn(-c2ccc3n(c2=O)CCN(Cc2cccc4ccccc24)C3=O)cn1 |
| 3.3 | Cc1cn(-c2ccc3n(c2=O)CCN(Cc2cccc4ccc(C(F)(F)F)cc24)C3=O)cn1 |
| 4.1 | CCn1cc(CN2CCn3c(ccc(-n4cnc(C)c4)c3=O)C2=O)c2ccc(C(F)(F)F)cc21 |
